Data reported in patent US9550763B2, “Heterocyclic ring and carbocyclic derivative” (Shionogi & Co., Ltd., priority 2012, dated 2017).

target: T1, human P2X3 receptor (Homo sapiens (Human), UniProt P56373); test: Evaluation of human P2X3 receptor inhibitory activity (Test Example 1-2, FLIPR 384, 384-well, 150 nM ATP); assay type: cell-based; details: human P2X3 receptor in C6BU-1 cells; Test Example 1-2 (compounds I-301 to I-483); read-out: P2X3 IC50
Description: Stably expressing cell line (C6BU-1 cell transfected with human P2X3 receptor gene (GenBank accession number Y07683) was used. The cells were seeded in a 384-well microtiter plate at a concentration of 3000 cells/well and cultured in the medium (7.0% fetal bovine serum, 7.0% horse serum, 1% antibiotic and antifungal in DMEM) for one day at 37° C. under 5% carbon dioxide atmosphere. The medium was replaced with 4 μM Fluo-3-AM solution (20 mM HEPES, […], 5.27 mM KCl, 0.9 mM MgCl2, 1.26 mM CaCl2, 5.6 mM D-glucose, 2.5 mM probenecid, 0.5% BSA, and 0.04% Pluronic F-127, pH 7.5) and incubated at 37° C. under 5% dioxide carbon atmosphere for one hour. The plate was washed with washing buffer (20 mM HEPES, 137 mM NaCl, 5.27 mM KCl, 0.9 mM MgCl2, 1.26 mM CaCl2, 5.6 mM D-glucose, 2.5 mM probenecid, pH7.5), and each well was added with 20 μL of this buffer. The plate was placed in High-Throughput Screening System FLIPR 384 (Molecular Device Co.). Measurement of fluorescence intensity by FLIPR 384 was started, and 20 μL of DMSO solutions containing different concentrations of the test compound as prepared by dilution with dilution buffer (20 mM HEPES, 137 mM NaCl, 5.27 mM KCl, 0.9 mM MgCl2, 1.26 mM CaCl2, 5.6 mM D-glucose, 2.5 mM probenecid, 0.1% Pluronic F-127, pH 7.5) were dispensed to each well through the built-in automatic dispenser. Five minutes after, 150 nM ATP solution (25 μL) prepared by dilution with the dilution buffer was dispensed through the built-in automatic dispenser, and the measurement of fluorescence intensity was continued for 4 min. For each well, the specific maximum fluorescence intensity was calculated as the ratio of the maximum fluorescence intensity after addition of the ATP solution to the fluorescence intensity at the starting of the measurement. The 50% inhibitory concentration (IC50) was calculated under the assumption that the specific maximum fluorescence intensity without test compound is 0% inhibition and that the specific maximum fluorescence intensity when the dilution buffer was added in place of ATP solution is 100% inhibition, to evaluate the inhibitory activity of the test compound. The specific maximum fluorescence intensity and IC50 were calculated using Spotfire (Science & Technology Systems, Inc.)
The data of the compounds I-001 to I-300 are the results by the method mentioned in Test Example 1-1, and the data of the compounds I-301 to I-483 are the results by the method mentioned in Test Example 1-2.

T1 sequence (P56373 whole entry): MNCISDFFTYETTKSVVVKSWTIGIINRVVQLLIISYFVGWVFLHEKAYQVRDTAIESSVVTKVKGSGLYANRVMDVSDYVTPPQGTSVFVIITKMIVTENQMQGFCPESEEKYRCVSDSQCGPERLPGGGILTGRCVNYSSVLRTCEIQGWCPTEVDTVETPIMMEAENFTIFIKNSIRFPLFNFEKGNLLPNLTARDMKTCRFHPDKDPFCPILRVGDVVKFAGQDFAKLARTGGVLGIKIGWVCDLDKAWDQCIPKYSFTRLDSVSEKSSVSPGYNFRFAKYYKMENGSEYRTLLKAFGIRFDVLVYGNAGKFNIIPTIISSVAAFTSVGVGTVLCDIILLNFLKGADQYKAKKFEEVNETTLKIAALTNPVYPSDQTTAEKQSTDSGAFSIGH

SMILES	IC50 [µM]
CC(=O)NNC(=O)c1c[nH]/c(=N\c2ccc(Oc3ccon3)cc2)n(Cc2ccc(Cl)cc2)c1=O [Compound I-347]	0.152
CCn1c(=O)[nH]c(Nc2ccc(Oc3cccc(C#N)n3)cc2)c(Cc2ccc(Cl)cc2)c1=O [Compound I-456, 5-(4-chlorobenzyl)-6-[4-(6-cyano-2-pyridyloxy)phenylamino]-3-ethylpyrimidin-2,4(1H,3H)-dione]	0.009
CCC(=O)Nc1c[nH]/c(=N\c2ccc(Oc3ccc(C(F)(F)F)nn3)cc2)n(Cc2ccc(Cl)cc2)c1=O [Compound I-411]	0.01
N#Cc1cccc(Oc2ccc(/N=c3\[nH]cc(-c4ccccc4)c(=O)n3Cc3ccc(Cl)cc3)cc2)n1 [Compound I-408, 1-(4-chlorobenzyl)-2-[4-(6-cyano-2-pyridyloxy)phenylamino]-5-phenylpyrimidin-6(1H)-one]	0.407
Cc1nnc(-c2c[nH]/c(=N\c3ccc(Oc4cccc(C(N)=O)n4)cc3)n(Cc3ccc(Cl)cc3)c2=O)o1 [Compound I-329]	0.02
Cc1nc(Nc2cc(=O)n(C(C)C)c(=O)n2Cc2ccc(Cl)cc2)ccc1Oc1cccc(C#N)c1 [Compound I-340]	0.008
NC(=O)c1cccc(Oc2ccc(/N=c3\[nH]cc(C4CCOCC4)c(=O)n3Cc3ccc(Cl)cc3)cc2)n1 [Compound I-483]	0.017
O=C(NC1CCOCC1)c1cn(Cc2ccc(F)cc2F)c(Nc2ccc(Oc3cccc(F)n3)cc2)nc1=O [Compound I-402]	0.009
O=C(NC1CCOCC1)c1cn(Cc2ccc(Cl)cc2)c(Nc2ccc3nc(C(F)F)sc3c2)nc1=O [Compound I-359]	0.057
CCCn1c(=O)cc(Nc2ccc(Oc3cccc(C(=O)O)c3)c(C)n2)n(Cc2ccc(C)cc2)c1=O [Compound I-474]	0.005

target: T1, human P2X3 receptor; test: Evaluation of human P2X3 receptor inhibitory activity (Test Example 1-1, FDSS 3000, 96-well, 50 nM ATP); assay type: cell-based; details: human P2X3 receptor in C6BU-1 cells; Test Example 1-1 (compounds I-001 to I-300)
Summary of the method: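 C6BU-1 cells stably expressing human P2X3, loaded with 4 μM Fluo-3-AM (pH 7.5), preincubated 5 min with compound before 50 nM ATP challenge; fluorescence followed 4 min on FDSS 3000. IC50 derived from peak/baseline fluorescence ratio, no-compound as 0% and buffer-instead-of-ATP as 100% inhibition.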

SMILES	IC50 [µM]
CCc1oc2ccc(Nc3ncc(C(=O)NC4CCOCC4)c(=O)n3Cc3ccc(Cl)cc3)cc2c1C [Compound I-019, 1-(4-chlorobenzyl)-2-(2-ethyl-3-methylbenzofuran-5-ylamino)-5-(tetrahydro-2H-pyran-4-ylcarbamoyl)pyrimidin-6(1H)-one]	0.135
Cc1cc(/N=c2\[nH]cc(C(N)=O)c(=O)n2Cc2ccc(Cl)cc2)ccc1Oc1cccc(F)n1 [Compound I-139]	0.016
CCc1oc2ccc(Nc3nc(=O)c(C(=O)NC(CC)CC)cn3Cc3ccc(Cl)cc3)cc2c1C [Compound I-031]	0.054
CCC(=O)Nc1c[nH]/c(=N\c2ccc(Oc3ccnc(C(=O)O)c3)cc2)n(Cc2ccc(Cl)cc2)c1=O [Compound I-105]	0.005
CCc1oc2ccc(Nc3ncc(NC(=O)C4CCOCC4)c(=O)n3CC3CCCCC3)cc2c1C [Compound I-080]	0.02
C/C(O)=C(/C#N)C(=O)Nc1c[nH]/c(=N\c2ccc(Oc3ccon3)cc2)n(Cc2ccc(Cl)cc2)c1=O [Compound I-242]	0.006
NC(=O)c1cccc(Oc2ccc(Nc3ncc(NC(=O)C4CCOCC4)c(=O)n3Cc3ccc(Cl)cc3)cc2)n1 [Compound I-038]	0.002
CCCn1c(=O)cc(Nc2ccc(Oc3cccc(C#N)n3)cn2)n(Cc2ccc(Cl)cc2)c1=O [Compound I-171]	0.021
CCN/C(=N\C#N)Nc1c[nH]/c(=N\c2ccc(Oc3ccon3)cc2)n(Cc2ccc(Cl)cc2)c1=O [Compound I-251]	0.118
CN(C)C(=O)c1c[nH]/c(=N\c2ccc(Oc3cccc(F)n3)cc2)n(Cc2ccc(Cl)cc2)c1=O [Compound I-195]	0.07
O=C(Nc1c[nH]/c(=N\c2ccc(Oc3ccon3)cc2)n(Cc2ccc(Cl)cc2)c1=O)c1ccon1 [Compound I-226]	0.208
CCCn1c(=O)cc(Nc2ccc(Oc3cccc(C#N)c3)c(C)n2)n(Cc2ccc(Cl)cc2)c1=O [Compound I-247]	0.096
CCn1c(=O)cc(Nc2ccc(Oc3nc(C)c(C(=O)O)s3)cc2)n(Cc2ccc(Cl)cc2)c1=O [Compound I-041]	0.003
CC(C)(C)OC(=O)N1CCC(C(=O)Nc2c[nH]/c(=N\c3ccc(Oc4ccon4)cc3)n(Cc3ccc(Cl)cc3)c2=O)CC1 [Compound I-182]	0.052
CCCn1c(=O)cc(Nc2ccc(Oc3cccc(C#N)n3)c(C)n2)n(Cc2ccc(Cl)cc2)c1=O [Compound I-187]	0.004
Cc1cnc(-c2c[nH]/c(=N\c3ccc(Oc4cccc(C#N)n4)cc3)n(Cc3ccc(Cl)cc3)c2=O)o1 [Compound I-278, 1-(4-chlorobenzyl)-2-[4-(6-cyano-2-pyridyloxy)phenylamino]-5-(5-methyloxazol-2-yl)pyrimidin-6(1H)-one]	0.02
CCc1oc2ccc(Nc3nc(=O)c(C(=O)NC(C)C)cn3Cc3ccc(Cl)cc3)cc2c1C [Compound I-022]	0.094
CCc1oc2ccc(/N=c3\[nH]cc(CC(=O)O)c(=O)n3Cc3ccc(Cl)cc3)cc2c1C [Compound I-074]	0.828
CCC(=O)Nc1c[nH]/c(=N\c2ccc(Oc3ccnc(C(N)=O)c3)cc2)n(Cc2ccc(Cl)cn2)c1=O [Compound I-277]	0.172
CCc1oc2ccc(/N=c3\[nH]cc(C=O)c(=O)n3Cc3ccc(Cl)cc3)cc2c1C [Compound I-045]	0.226

SMILES	IC50 [µM]
NC(=O)c1c[nH]/c(=N\c2ccc(Oc3ncccc3F)cc2)n(Cc2ccc(Cl)cc2)c1=O [Compound I-110]	0.027
O=C(Nc1c[nH]/c(=N\c2ccc(Oc3ccon3)cc2)n(Cc2ccc(Cl)cn2)c1=O)C1CCOCC1 [Compound I-275]	0.051
O=C(Nc1c[nH]/c(=N\c2ccc(Oc3ccon3)cc2)n(Cc2ccc(Cl)cc2)c1=O)c1ccccc1 [Compound I-253]	0.061
CCc1oc2ccc(Nc3ncc(NC(=O)C4CCOCC4)c(=O)n3Cc3ccc(Cl)c(Cl)c3)cc2c1C [Compound I-079]	0.058
CC(=O)Nc1cnc(Nc2ccc(Oc3ccon3)cc2)n(Cc2ccc(Cl)cc2)c1=O [Compound I-065]	0.099
O=C(Nc1c[nH]/c(=N\c2ccc(Oc3ccon3)cc2)n(Cc2ccc(Cl)cc2)c1=O)c1cccnc1 [Compound I-265]	0.048
CCOC(=O)c1cnc(Oc2ccc(Nc3cc(=O)n(CC)c(=O)n3Cc3ccc(Cl)cc3)cc2)s1 [Compound I-010]	0.004
CCn1c(=O)cc(Nc2ccc(Oc3cccc(C(N)=O)c3)cc2)n(Cc2ccc(Cl)cc2)c1=O [Compound I-024]	0.014
CCC(=O)Nc1c[nH]/c(=N\c2ccc(Oc3ccnc(C(N)=O)c3)cc2)n(Cc2ccc(Cl)cc2)c1=O [Compound I-106]	0.007
O=C(Nc1cnc(Nc2ccc3nc(C(F)F)sc3c2)n(Cc2ccc(Cl)cc2)c1=O)C1CCOCC1 [Compound I-300]	0.015
CCC(=O)Nc1c[nH]/c(=N\c2ccc(Oc3ccc(C(=O)O)nc3)cc2)n(Cc2ccc(Cl)cc2)c1=O [Compound I-092]	0.019
CCn1c(=O)cc(Nc2ccc(Oc3cccc(C(=O)O)n3)cc2)n(Cc2ccc(Cl)cc2)c1=O [Compound I-040]	0.003
CCn1c(=O)cc(Nc2ccc(Oc3ncc(C(=O)O)s3)cc2)n(Cc2ccc(Cl)cc2)c1=O [Compound I-013]	0.002
O=C(NC1CCOCC1)c1cn(Cc2cccc(F)c2)c(Nc2ccc(Oc3cccc(F)n3)cc2)nc1=O [Compound I-283]	0.226
O=C(Nc1cnc(Nc2ccc(Oc3ccon3)cc2)n(Cc2ccc(Cl)cc2)c1=O)C1CCOCC1 [Compound I-086]	0.002
O=C(O)c1c[nH]/c(=N\c2ccc(Oc3ccc(F)cn3)c(F)c2)n(Cc2ccc(Cl)cc2)c1=O [Compound I-207]	0.252
O=C(Nc1c[nH]/c(=N\c2ccc(Oc3ccon3)cc2)n(Cc2ccc(Cl)cc2)c1=O)c1cc[nH]n1 [Compound I-231]	0.388
CCn1c(=O)cc(Nc2ccc(Oc3cccc(C#N)c3)c(C)n2)n(Cc2ccc(Cl)cc2)c1=O [Compound I-246]	0.071
CCC(=O)Nc1c[nH]/c(=N\c2ccc(Oc3ccc(C)nn3)cc2)n(Cc2ccc(Cl)cc2)c1=O [Compound I-146]	0.026
CCc1oc2ccc(/N=c3\[nH]cc(CN4CCOCC4)c(=O)n3Cc3ccc(Cl)cc3)cc2c1C [Compound I-057]	0.269
